Experimental data: patent EP4327830A1 (priority 2022, dated 2024)

Tests used:
[1] = biological target: protein phosphatase-1 catalytic subunit (a-Isoform from rabbit, Sigma-Aldrich) (Oryctolagus cuniculus, UniProt P62139); assay type: biochemical; settings: read-out: IC50_PPI + SE
HEK293 OATP1B1+ = settings: for IC50: read-out: IC50_cytotox on OATP1B1 expressing cell line + SE
HEK293 OATP1B3+ = settings: for IC50: read-out: IC50_cytotox on OATP1B3 expressing cell line + SE
[2] = biological target: type 1 protein phosphatase; settings: cited from earlier work
[3] = system: type 2A protein phosphatases; settings: cited from earlier work

Chain of protein phosphatase-1 catalytic subunit (a-Isoform from rabbit, Sigma-Aldrich) (P62139 whole entry, looked up, canonical isoform): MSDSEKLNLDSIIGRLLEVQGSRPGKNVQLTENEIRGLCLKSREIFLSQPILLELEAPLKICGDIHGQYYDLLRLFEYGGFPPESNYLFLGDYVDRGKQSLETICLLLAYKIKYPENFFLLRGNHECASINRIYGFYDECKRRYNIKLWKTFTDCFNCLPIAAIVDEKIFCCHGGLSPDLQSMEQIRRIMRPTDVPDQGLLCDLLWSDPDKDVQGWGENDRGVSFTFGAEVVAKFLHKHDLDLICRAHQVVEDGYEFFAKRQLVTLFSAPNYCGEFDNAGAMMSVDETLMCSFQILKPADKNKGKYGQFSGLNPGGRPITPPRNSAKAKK

C=C1C(=O)N[C@H](C)C(=O)N[C@@H](CCCN=[N+]=[N-])C(=O)N[C@@H](C(=O)O)CC(=O)N[C@@H](CCCNC(=N)N)C(=O)N[C@@H](/C=C/C(C)=C/[C@H](C)[C@H](Cc2ccccc2)OC)[C@H](C)C(=O)N[C@@H](C(=O)O)CCC(=O)N1C [MC-(Aznva)R, cyclo(D-Ala-Aznva-D-Asp-R-Adda-D-Glu-Mdha)]
IC50 [1]: 46.7 ± 9.2 nM
Ratio of IC50_Cytotox OATP1B1/ IC50_PPI (HEK293 OATP1B1+): 0.52
IC50 (HEK293 OATP1B1+): 24.1 ± 11.5 nM
Ratio of IC50_cytotox OATP1B3/ IC50_PPI (HEK293 OATP1B3+): 0.58
IC50 (HEK293 OATP1B3+): 27 ± 1.5 nM

C#CCOc1ccc(C[C@@H]2NC(=O)[C@@H](C)NC(=O)C(=C)N(C)C(=O)CC[C@H](C(=O)O)NC(=O)[C@@H](C)[C@H](/C=C/C(C)=C/[C@H](C)[C@H](Cc3ccccc3)OC)NC(=O)[C@H](CCCNC(=N)N)NC(=O)C[C@H](C(=O)O)NC2=O)cc1 [MC-(Prtyr)R, cyclo(D-Ala-Prtyr-D-Asp-R-Adda-D-Glu-Mdha)]
IC50 [1]: 8.4 ± 5.4 nM
Ratio of IC50_Cytotox OATP1B1/ IC50_PPI (HEK293 OATP1B1+): 9.79
IC50 (HEK293 OATP1B1+): 82.2 ± 4.5 nM
Ratio of IC50_cytotox OATP1B3/ IC50_PPI (HEK293 OATP1B3+): 4.81
IC50 (HEK293 OATP1B3+): 40.4 ± 36.6 nM

microcystin-LR
IC50 [2]: 0.03 nM
IC50 [3]: 0.04 nM
